Columns and labels:
[1] = target: T1, Pancreatic triacylglycerol lipase (Sus scrofa) (UniProt P00591); experiment: Inhibition of porcine pancreatic lipase at 4.1 mg/ml under duodenal phase at pH 6.5 using solid test meal measured after 30 to 90 mins relative to control; conditions: time 30-90 min
T1 sequence (whole entry): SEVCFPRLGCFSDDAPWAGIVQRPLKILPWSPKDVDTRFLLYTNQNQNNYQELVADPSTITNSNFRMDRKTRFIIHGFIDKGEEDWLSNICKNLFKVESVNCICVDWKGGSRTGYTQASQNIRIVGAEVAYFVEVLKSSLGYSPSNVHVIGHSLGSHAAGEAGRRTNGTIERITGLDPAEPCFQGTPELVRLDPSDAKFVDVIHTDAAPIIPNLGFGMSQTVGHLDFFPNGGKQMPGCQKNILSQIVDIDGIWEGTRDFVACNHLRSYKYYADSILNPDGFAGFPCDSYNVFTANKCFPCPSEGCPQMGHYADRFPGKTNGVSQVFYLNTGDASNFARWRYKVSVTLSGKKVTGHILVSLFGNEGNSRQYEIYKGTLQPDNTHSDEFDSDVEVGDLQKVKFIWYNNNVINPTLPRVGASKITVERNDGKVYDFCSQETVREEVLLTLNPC

[2] = target: T2, Gastric triacylglycerol lipase (Canis lupus familiaris) (UniProt P80035); experiment: Inhibition of recombinant dog gastric lipase at 20:1 molar excess compound concentration preincubated for 30 mins at 25 degreeC relative to control
T2 sequence (whole entry): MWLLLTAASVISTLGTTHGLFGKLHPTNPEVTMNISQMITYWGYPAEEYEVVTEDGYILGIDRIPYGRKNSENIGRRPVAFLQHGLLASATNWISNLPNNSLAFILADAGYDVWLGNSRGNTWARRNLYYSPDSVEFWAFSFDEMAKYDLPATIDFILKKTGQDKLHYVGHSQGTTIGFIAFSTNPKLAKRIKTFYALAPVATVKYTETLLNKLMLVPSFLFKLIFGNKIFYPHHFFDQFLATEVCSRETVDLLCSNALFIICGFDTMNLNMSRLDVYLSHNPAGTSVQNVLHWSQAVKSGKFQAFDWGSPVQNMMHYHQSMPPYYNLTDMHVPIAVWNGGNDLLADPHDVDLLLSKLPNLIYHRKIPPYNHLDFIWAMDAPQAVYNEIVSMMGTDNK

O=c1oc(OCCOCc2ccccc2)nn1-c1cccc(Oc2ccccc2)c1
inhibition [1]: 5.1% | inhibition [2]: 91.5%
